Results published in patent US7122530B2, “24-hydroxyvitamin D, analogs and uses thereof” (Genzyme Corporation, priority 1998, dated 2006).
Read-outs that look alike come from different tables or passages of the source.

What was measured:
[1] = tested on: dermatitis (contact and ectopic) patients; test: Double blind study of oral 24(S)-OH-preD2 formulation in dermatitis (contact and ectopic); assay type: in vivo, human; conditions: daily oral 10.0 to 20.0 μg, four to six weeks
Procedure: An oral dosage formulation containing 24(S)-OH-preD2 is evaluated in a double blind study for therapeutic efficacy of the formulation in the treatment of dermatitis (contact and ectopic). The formulation evaluated contains 10.0 to 20.0 μg of 24(S)-OH-preD2. […] The patients are treated in an outpatient clinic and are divided into an experimental and control population. They are instructed to take the medication once a day, in the morning before breakfast.
In each patient (experimental and control) an area of the skin containing a lesion is selected which is ordinarily covered by clothing, and the patients are instructed not to expose the skin area selected for study to sunlight. The area of the lesion is estimated and recorded, and the lesion(s) is photographed. Relevant details of the photographic procedure are recorded so as to be reproduced when the lesions are next photographed (distance, aperture, angle, background, etc.).
Evaluations of erythema, scaling, and thickness are conducted at weekly intervals by a physician. The final evaluation is usually carried out at the end of four to six weeks of treatment.

[2] = Production of 1α,24(S)-(OH)2-25-ene-D2 in osteoporotic women (blood metabolite, HPLC and radioreceptor assay); assay type: in vivo, human; conditions: 25 μg/day for one week; one day following the last dose
Procedure: Human female subjects, who have been diagnosed with osteoporosis, are given daily doses of 25 μg/day 24-OH-25-ene-D2 for one week. Blood is collected and analyzed for the metabolite 1α,24(S)-(OH)2-25-ene-D2. Lipid is extracted from the blood, and the metabolite is purified by HPLC using standard methods and quantified with the radioreceptor assay produced by Incstar (Stillwater, Minn.).

[3] = Blood level of 1α,24-(OH)2-D2 in vitamin D-deficient rats given 24-OH-previtamin D2; assay type: in vivo; conditions: 0.25 μg/kg oral; four hours after administration
Procedure: Male weanling rats are fed a diet deficient in vitamin D and with normal calcium (0.47%). After a period of four weeks has elapsed, the rats are divided into two groups, and orally administered either 24-OH-previtamin D2 (0.25 μg/kg) in a vehicle such as lactose or the vehicle (control) alone.

[4] = tested on: postmenopausal osteoporotic outpatients; test: Clinical study of osteoporosis treatment with 24-OH-preD2; assay type: in vivo, human; conditions: oral, above 5.0 μg/day, 24 months
Procedure: A clinical study is conducted with postmenopausal osteoporotic outpatients having ages between 55 and 75 years. The study involves up to 120 patients randomly divided into three treatment groups, and continues for 24 months. Two of the treatment groups receive constant dosages of orally administered 24-OH-preD2 (u.i.d.; two different dose levels above 5.0 μg/day) and the other group receives a matching placebo. All patients maintain a normal intake of dietary calcium (500 to 800 mg/day) and refrain from using calcium supplements. Efficacy is evaluated by pretreatment and posttreatment comparisons of the patient groups with regard to (a) total body, radial, femoral, and/or spinal bone mineral density as determined by x-ray absorptiometry (DEXA), (b) bone biopsies of the iliac crest, and (c) determinations of serum osteocalcin. Safety is evaluated by comparisons of urinary hydroxyproline excretion, serum and urine calcium levels, creatinine clearance, blood urea nitrogen, and other routine determinations.

[5] = tested on: patients with advanced androgen-independent prostate cancer; test: Study of Example 10 repeated with 24-OH-preD2 in prostate cancer; assay type: in vivo, human; conditions: for progression of metastatic disease (CAT scans, X-rays and bone scans): phase two, after two years
Text: Patients with advanced androgen-independent prostate cancer participate in an open-label study of 24-(OH)-D2. […] On admission to the study, patients begin a course of therapy with oral 24-(OH)-D2 lasting 26 weeks, while discontinuing any previous use of calcium supplements, vitamin D supplements, and vitamin D hormone replacement therapies. During treatment, the patients are monitored at regular intervals for: (1) hypercalcemia, hyperphosphatemia, hypercalciuria, hyperphosphaturia and other toxicity; (2) evidence of changes in the progression of metastatic disease; and (3) compliance with the prescribed test drug dosage.
The study is conducted in two phases. During the first phase, the maximal tolerated dosage (MTD) of daily oral 24-(OH)D2 is determined by administering progressively higher dosages to successive groups of patients. All doses are administered in the morning before breakfast. The first group of patients is treated with 25.0 μg of 24-(OH)D2. Subsequent groups of patients are treated with 50.0, 75.0 and 100.0 μg/day. Dosing is continued uninterrupted for the duration of the study unless serum calcium exceeds 11.6 mg/dL, or other toxicity of grade 3 or 4 is observed, in which case dosing is held in abeyance until resolution of the observed toxic effect(s) and then resumed at a level which has been decreased by 10.0 μg.
The study of Example 10 is repeated for the vitamin D compound, 24-OH-preD2.

[6] = tested on: subjects with secondary hyperparathyroidism; test: Twelve-month placebo-controlled trial of 24-OH-preD2 in elderly subjects with secondary hyperparathyroidism; assay type: in vivo, human; conditions: 15 μg/day, twelve months
Procedure: (§1) A twelve-month double-blind placebo-controlled clinical trial is conducted with forty subjects with secondary hyperparathyroidism. The selected subjects have ages between 60 and 100 years and have a history of secondary hyperparathyroidism. Subjects also have femoral neck osteopenia (femoral neck bone mineral density of ≦0.70 g/cm^2).
(§2) All subjects enter a six-week control period after which the subjects are randomized into two treatment groups: one group receives a constant dosage of 15 μg/day 24-OH-preD2, and the other group receives a matching placebo. Both groups maintain a normal intake of dietary calcium without the use of calcium supplements. Efficacy is evaluated by pre- and post-treatment comparisons of the two patient groups with regard to (a) intact PTH (iPTH); (b) radial, femoral and spinal bone mineral density; and (c) bone-specific urine markers (e.g., pyridinium crosslinks). Safety is evaluated by (a) serium calcium and phosphorus, and (b) urine calcium and phosphorus.

[7] = tested on: patients with primary hyperparathyroidism; test: Clinical trial of 24-OH-preD2 for primary hyperparathyroidism; assay type: in vivo, human
Procedure: Twenty renal patients are enrolled in a clinical trial to study primary hyperparathyroidism. The patients show baseline iPTH levels greater than 200 pg/mL. An initial dose of 24-OH-preD2 (2–4 μg/day) is increased (maximum, 10 μg/day) or decreased as necessary to attain and maintain iPTH in the normal range. After 11–12 weeks of treatment, the iPTH levels of the patients decrease to below 100 pg/mL, and in many cases to below 60 pg/mL.

[8] = tested on: postmenopausal women; conditions: cited from earlier work
[9] = tested on: patients (Japan; senile osteoporosis); conditions: cited from earlier work
[10] = tested on: postmenopausal osteoporotic out-patients; test: Clinical study of prevention of bone mass loss with 24(S)-OH-25-ene-D2; assay type: in vivo, human; conditions: at or above 5.0 μg/day, 24 to 36 months
Procedure: A clinical study is conducted with postmenopausal osteoporotic out-patients having ages between 55 and 75 years. The study involves up to 120 patients randomly divided into three treatment groups and continues for 24 to 36 months. Two of the treatment groups receive constant dosages of 24(S)-OH-25-ene-D2 (u.i.d.; two different dose levels at or above 5.0 μg/day) and the other group receives a matching placebo. All patients maintain a normal intake of dietary calcium (500 to 800 mg/day) and refrain from using calcium supplements. Efficacy is evaluated by pre- and post-treatment comparisons of the patient groups with regard to (a) total body calcium retention, and (b) radial and spinal bone mineral density as determined by dual-photon absorptiometry (DPA) or dual-energy x-ray absorptiometry (DEXA). Safety is evaluated by comparisons of urinary hydroxyproline excretion, serum and urine calcium levels, creatinine clearance, blood urea nitrogen, and other routine determinations.

[11] = tested on: subjects with secondary hyperparathyroidism; test: Twelve-month placebo-controlled trial of 24-(OH)-D4 in elderly subjects with secondary hyperparathyroidism; assay type: in vivo, human; conditions: 15 μg/day, twelve months
Procedure: as §1
as §2, with “24-(OH)-D4,” for “24-OH-preD2,”

[12] = In vivo generation of 1α,24-(OH)2-D2 in vitamin D-deficient rats (plasma metabolites by HPLC)
Procedure: 24-OH-D2 was administered (either oral or intraperitoneal supplementation) to vitamin D-deficient rats. Lipid extracts of the plasma were prepared and the metabolites purified by the method of Horst et al. (Horst, R. L., Koszewski, N. J. and Reinhardt, T. A., Biochem., 29:578–82 (1990) and incorporated herein by reference) described below for synthesizing standard biological 1α,24-(OH)2D2.

Molecule: 24(S)-hydroxyprevitamin D2 [24(S)-OH-preD2]
- degree of erythema, scaling, and thickness versus control patients [1]: significantly reduces

Molecule: 24-hydroxy-25-ene-vitamin D2 [24-OH-25-ene-D2]
- level of 1α,24(S)-(OH)2-25-ene-D2 in the blood [2]: significant level

Molecule: 24-hydroxyprevitamin D2 [24-OH-preD2]
- blood level of 1α,24-(OH)2-D2 versus control animals [3]: significantly elevated
- bone biopsies (bone formation) [4]: stimulates normal bone formation
- incidence of hypercalcemia or hypercalciuria, or any other metabolic disturbance [4]: insignificant incidence
- serum osteocalcin [4]: significant elevations
- total body, radial, femoral, and/or spinal bone densities relative to placebo [4]: significantly higher
- progression of metastatic disease (CAT scans, X-rays and bone scans) ([5]; higher dosage): stable disease and partial or complete remission in many patients
- progression of metastatic disease (CAT scans, X-rays and bone scans) ([5]; lower dosage): stable disease or partial remission in many patients
- bone pain associated with metastatic disease ([5]; treated with the MTD for at least six months): significantly diminished
- bone specific urine markers [6]: significantly decreases
- incidence of hypercalcemia [6]: insignificant incidence
- intact PTH (iPTH) [6]: significantly decreases
- radial and spinal bone densities relative to baseline values [6]: stable
- serum calcium levels [6]: normal serum calcium levels
- iPTH levels of the patients ([7]; after 11–12 weeks, baseline greater than 200 pg/mL, 2–4 μg/day, titrated): below 100 pg/mL
- iPTH levels, in many cases ([7]; after 11–12 weeks, in many cases): below 60 pg/mL
- episodes of hypercalcemia ([7]; during the study): few episodes of hypercalcemia

Molecule: C=C1/C(=C\C=C2/CCC[C@]3(C)[C@@H]([C@H](C)CCCC(C)(C)O)CC[C@@H]23)C[C@@H](O)C[C@@H]1O [1α,25-dihydroxyvitamin D3]
- intestinal calcium absorption and calcium balance ([8]; 0.5 μg/day, postmenopausal women): improved
- effects on bone mass or mineral content ([8]; dosage levels below 0.5 μg/day): no effects are observed

Molecule: C=C1/C(=C\C=C2/CCC[C@]3(C)[C@@H]([C@H](C)CCCC(C)C)CC[C@@H]23)C[C@@H](O)C[C@@H]1O [1α-hydroxyvitamin D3]
- efficacy ([9]; 1 μg/day, Japan, low calcium intake): efficacy is found
- patients in whom toxicity occurs ([9]; 1 μg/day): approximately 20%
- patients in whom toxicity occurs ([9]; 2 μg/day): approximately 67%

Molecule: C=C1CC[C@H](O)C/C1=C/C=C1\CCC[C@]2(C)[C@@H]([C@H](C)/C=C/[C@](C)(O)C(=C)C)CC[C@@H]12 [24(S)-OH-25-ene-D2]
- incidence of hypercalcemia or hypercalciuria, or any other metabolic disturbance [10]: insignificant incidence
- total body calcium, and radial and spinal bone densities relative to placebo [10]: significantly higher

Molecule: C=C1CC[C@H](O)C/C1=C/C=C1\CCC[C@]2(C)[C@@H]([C@H](C)CCC(C)(O)C(C)C)CC[C@@H]12 (some centres unmarked) [24-(OH)-D4, 24-hydroxyvitamin D4]
- bone specific urine markers [11]: significantly decreases
- incidence of hypercalcemia [11]: insignificant incidence
- intact PTH (iPTH) [11]: significantly decreases
- radial and spinal bone densities relative to baseline values [11]: stable
- serum calcium levels [11]: normal serum calcium levels

Molecule: C=C1CC[C@H](O)C/C1=C/C=C1\CCC[C@]2(C)[C@@H]([C@H](C)/C=C/[C@H](C)C(C)C)CC[C@@H]12 [vitamin D2]
- metabolite isolated from plasma lipid extracts versus standard 1α,24-(OH)2D2 ([12]; vitamin D-deficient rats, oral or intraperitoneal supplementation, HPLC): co-migrated on HPLC with the standard 1α,24-(OH)2D2

Molecule: C=C1CC[C@H](O)C/C1=C/C=C1\CCC[C@]2(C)[C@@H]([C@H](C)CCCC(C)C)CC[C@@H]12 [vitamin D3]
- detectable 24-OH-D3 in plasma ([12]; comparable vitamin D-deficient rats): no detectable 24-OH-D3
